From patent US8242122B2, “Method and compounds for inhibition of cell death” (University of Central Florida Research Foundation, Inc., priority 2002, dated 2012)
Values joined by “and” are separate entries in the source; they are usually repeats but may differ in a detail not shown here. Identical values can stand only once. Like-named read-outs stand apart in the source and are kept apart here.

Columns and labels:
[1] = molecular target: Hu-plasmin (Homo sapiens, UniProt P00747); settings: read-out: IC50 Hu-plasmin; two independent experiments
[2] = system: caspase-9 (−/−) null fibroblasts
[3] = molecular target: Hu-thrombin (Homo sapiens, UniProt P00734); settings: read-out: IC50 Hu-thrombin; two independent experiments
[4] = system: Canine-Fxa; settings: read-out: IC50 Canine-Fxa; two independent experiments
[5] = molecular target: Bovine-trypsin (Bos taurus, UniProt P00760); settings: read-out: IC50 Bovine-trypsin; two independent experiments
[6] = molecular target: T1, MBP-Omi-(134-458) (Homo sapiens, UniProt O43464); settings: 10 μM compound; after two rounds of screening and selection
[7] = system: HeLa cells; experiment: Apoptosis in HeLa cells transfected with Omi-GVPS-GFP; settings: increasing concentration of ucf-101
[8] = molecular target: T1, MBP-Omi-(134-458)
[9] = molecular target: Hu-kallikrein (Homo sapiens, UniProt P03952); settings: read-out: IC50 Hu-kallikrein; two independent experiments
[10] = molecular target: Hu-t-PA (Homo sapiens, UniProt P00750); settings: read-out: IC50 Hu-t-PA; two independent experiments
[11] = system: MPT cells; experiment: Cisplatin-induced apoptosis in MPT cells, annexin V flow cytometry; settings: 20 μM or 50 μM ucf-101 for 20 minutes, then cisplatin 6 hours
[12] = molecular target: Rat-Fxa (Rattus norvegicus, UniProt Q63207); settings: read-out: IC50 Rat-Fxa; two independent experiments
[13] = molecular target: T2, His-Omi-134-458 (Homo sapiens, UniProt O43464); settings: 30 min at 37° C
[14] = system: HeLa cells; settings: HeLa cells, 50, 40 and 20 μM, 2 h
[15] = molecular target: Hu-u-PA (Homo sapiens, UniProt P00749); settings: read-out: IC50 Hu-u-PA; two independent experiments
[16] = molecular target: T2, His-Omi-134-458; settings: read-out: IC50 on His-Omi; average from three independent experiments
[17] = molecular target: MBP-L56-(140-480) (L56/HtrA1) (Homo sapiens, UniProt Q92743); settings: various concentrations; initial 20 min
[18] = molecular target: T2, His-Omi-134-458; settings: 200 ng His-Omi, 5 μg β-casein, 30 min
[19] = molecular target: Hu-rec.-FVIIa (FVIIa/tissue factor) (Homo sapiens, UniProt P08709); settings: read-out: IC50 Hu-rec.-FVIIa; two independent experiments
Hu-rec.-FVIIa (FVIIa/tissue factor), sequence (P08709 213-466 limits assumed): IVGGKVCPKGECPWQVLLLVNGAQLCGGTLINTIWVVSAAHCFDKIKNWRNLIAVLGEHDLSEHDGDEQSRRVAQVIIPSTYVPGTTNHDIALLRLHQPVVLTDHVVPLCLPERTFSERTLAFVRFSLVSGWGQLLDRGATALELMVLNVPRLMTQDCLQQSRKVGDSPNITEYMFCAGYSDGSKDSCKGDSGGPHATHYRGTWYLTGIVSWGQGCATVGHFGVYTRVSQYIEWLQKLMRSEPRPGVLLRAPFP
Hu-rec.-FVIIa (FVIIa/tissue factor), sequence (P08709 61-212 limits assumed): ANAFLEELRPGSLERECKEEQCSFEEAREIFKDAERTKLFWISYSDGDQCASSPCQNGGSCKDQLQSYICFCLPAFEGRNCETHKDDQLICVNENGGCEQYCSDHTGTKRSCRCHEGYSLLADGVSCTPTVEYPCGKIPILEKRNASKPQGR
Hu-rec.-FVIIa (FVIIa/tissue factor), sequence (P13726 33-295 partner): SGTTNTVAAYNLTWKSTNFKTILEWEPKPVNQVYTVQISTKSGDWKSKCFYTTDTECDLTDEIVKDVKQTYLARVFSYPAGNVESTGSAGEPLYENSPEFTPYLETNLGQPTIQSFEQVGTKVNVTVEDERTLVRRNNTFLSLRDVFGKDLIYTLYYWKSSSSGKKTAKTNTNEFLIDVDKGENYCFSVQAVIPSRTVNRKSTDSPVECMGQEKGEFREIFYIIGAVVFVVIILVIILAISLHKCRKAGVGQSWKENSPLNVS

T2 sequence (O43464 134-458): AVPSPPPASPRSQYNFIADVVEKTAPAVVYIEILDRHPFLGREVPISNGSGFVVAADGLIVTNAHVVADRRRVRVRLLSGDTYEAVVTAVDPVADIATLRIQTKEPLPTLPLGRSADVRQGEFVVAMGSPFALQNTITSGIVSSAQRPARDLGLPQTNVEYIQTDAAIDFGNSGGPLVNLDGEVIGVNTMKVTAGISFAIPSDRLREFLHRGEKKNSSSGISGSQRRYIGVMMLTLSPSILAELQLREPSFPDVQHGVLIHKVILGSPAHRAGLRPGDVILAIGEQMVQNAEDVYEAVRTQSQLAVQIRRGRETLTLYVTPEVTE
T1 sequence (O43464 134-458): as above
Rat-Fxa, sequence (Q63207 232-482 limits assumed): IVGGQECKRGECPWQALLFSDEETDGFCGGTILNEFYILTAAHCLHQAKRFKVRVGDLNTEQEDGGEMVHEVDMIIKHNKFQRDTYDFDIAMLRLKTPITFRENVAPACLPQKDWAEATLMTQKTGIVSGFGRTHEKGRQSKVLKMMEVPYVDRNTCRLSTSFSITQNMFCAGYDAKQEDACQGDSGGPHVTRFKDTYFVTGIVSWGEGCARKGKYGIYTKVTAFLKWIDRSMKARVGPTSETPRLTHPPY
Rat-Fxa, sequence (Q63207 41-180 limits assumed): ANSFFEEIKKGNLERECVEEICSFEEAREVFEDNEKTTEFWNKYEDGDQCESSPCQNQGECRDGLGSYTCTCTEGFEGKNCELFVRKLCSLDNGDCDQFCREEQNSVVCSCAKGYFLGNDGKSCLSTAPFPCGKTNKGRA
Hu-plasmin, sequence (P00747 581-810 limits assumed): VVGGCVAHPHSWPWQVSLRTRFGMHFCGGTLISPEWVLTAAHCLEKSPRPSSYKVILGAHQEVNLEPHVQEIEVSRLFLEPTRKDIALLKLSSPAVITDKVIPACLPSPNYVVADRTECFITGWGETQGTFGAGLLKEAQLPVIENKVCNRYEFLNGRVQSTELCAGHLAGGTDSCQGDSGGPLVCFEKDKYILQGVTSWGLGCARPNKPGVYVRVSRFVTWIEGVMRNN
Hu-plasmin, sequence (P00747 97-580 limits assumed): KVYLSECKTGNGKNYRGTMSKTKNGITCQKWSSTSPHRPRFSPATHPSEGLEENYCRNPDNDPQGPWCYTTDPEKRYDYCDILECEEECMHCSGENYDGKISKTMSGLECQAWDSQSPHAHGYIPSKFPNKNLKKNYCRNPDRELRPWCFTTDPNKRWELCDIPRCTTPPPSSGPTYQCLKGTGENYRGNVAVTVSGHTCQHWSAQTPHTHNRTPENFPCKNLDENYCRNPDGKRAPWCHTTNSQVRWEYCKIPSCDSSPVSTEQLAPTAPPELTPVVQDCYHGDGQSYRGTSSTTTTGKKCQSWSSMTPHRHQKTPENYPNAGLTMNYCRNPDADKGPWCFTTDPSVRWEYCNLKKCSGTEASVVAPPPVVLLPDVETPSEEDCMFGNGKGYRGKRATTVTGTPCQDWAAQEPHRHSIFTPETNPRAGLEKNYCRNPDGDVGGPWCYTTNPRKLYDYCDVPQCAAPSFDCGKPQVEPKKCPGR
Hu-kallikrein, sequence (P03952 391-638 limits assumed): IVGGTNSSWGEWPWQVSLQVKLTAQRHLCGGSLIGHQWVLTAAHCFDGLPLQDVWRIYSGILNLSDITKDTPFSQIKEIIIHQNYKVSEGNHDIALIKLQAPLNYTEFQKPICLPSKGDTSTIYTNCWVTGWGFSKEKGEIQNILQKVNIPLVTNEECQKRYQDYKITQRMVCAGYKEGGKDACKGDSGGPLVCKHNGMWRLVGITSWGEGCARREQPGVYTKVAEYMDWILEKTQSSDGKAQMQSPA
Hu-kallikrein, sequence (P03952 20-390 limits assumed): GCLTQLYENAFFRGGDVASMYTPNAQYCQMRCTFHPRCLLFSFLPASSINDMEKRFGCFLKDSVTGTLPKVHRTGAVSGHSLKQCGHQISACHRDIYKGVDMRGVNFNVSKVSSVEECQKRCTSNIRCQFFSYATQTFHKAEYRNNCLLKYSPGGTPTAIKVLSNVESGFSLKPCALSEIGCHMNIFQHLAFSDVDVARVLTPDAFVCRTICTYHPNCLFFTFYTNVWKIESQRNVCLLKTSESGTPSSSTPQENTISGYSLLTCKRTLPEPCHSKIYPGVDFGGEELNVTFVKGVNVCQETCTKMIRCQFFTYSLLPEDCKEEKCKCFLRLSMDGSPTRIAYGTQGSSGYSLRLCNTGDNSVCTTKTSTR
Hu-t-PA, sequence (P00750 36-562): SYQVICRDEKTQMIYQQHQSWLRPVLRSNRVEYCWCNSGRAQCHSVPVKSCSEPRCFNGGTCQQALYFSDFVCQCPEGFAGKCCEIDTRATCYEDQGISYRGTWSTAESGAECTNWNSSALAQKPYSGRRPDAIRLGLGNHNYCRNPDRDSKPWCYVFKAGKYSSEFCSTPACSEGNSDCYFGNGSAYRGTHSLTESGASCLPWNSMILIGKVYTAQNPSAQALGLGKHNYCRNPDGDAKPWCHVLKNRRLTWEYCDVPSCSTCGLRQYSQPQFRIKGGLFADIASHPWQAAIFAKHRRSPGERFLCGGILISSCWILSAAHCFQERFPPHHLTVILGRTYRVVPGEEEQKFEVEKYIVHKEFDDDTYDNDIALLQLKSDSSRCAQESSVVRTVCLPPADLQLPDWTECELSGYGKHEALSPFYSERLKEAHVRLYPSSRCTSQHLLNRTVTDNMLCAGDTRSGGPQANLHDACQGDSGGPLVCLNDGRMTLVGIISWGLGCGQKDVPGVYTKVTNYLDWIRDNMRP
Bovine-trypsin, sequence (P00760 24-246): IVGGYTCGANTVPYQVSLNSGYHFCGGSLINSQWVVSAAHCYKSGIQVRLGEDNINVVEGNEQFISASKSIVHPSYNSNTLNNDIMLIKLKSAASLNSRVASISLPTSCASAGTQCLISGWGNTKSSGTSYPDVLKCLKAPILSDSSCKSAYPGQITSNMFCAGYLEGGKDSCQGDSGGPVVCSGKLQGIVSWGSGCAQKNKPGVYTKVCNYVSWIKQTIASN
MBP-L56-(140-480) (L56/HtrA1), sequence (Q92743 140-480): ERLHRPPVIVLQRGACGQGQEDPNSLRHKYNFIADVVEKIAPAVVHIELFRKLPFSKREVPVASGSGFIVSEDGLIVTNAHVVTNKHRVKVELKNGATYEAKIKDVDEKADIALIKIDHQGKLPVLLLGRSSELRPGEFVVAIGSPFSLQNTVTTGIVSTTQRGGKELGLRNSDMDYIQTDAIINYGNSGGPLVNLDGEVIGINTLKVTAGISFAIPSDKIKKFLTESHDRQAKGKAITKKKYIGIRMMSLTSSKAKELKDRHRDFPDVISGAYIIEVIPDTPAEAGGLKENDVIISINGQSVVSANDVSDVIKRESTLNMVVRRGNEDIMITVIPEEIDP

Question: For `Cc1cccc([N+](=O)[O-])c1-c1ccc(C=C2C(=O)N(c3ccccc3)C(=S)N(c3ccccc3)C2=O)o1` [ucf-101], which IC50 [1] is on record?
Answer: > 500 µM and 400 µM

Question: And the cytotoxicity ([2]; 25 μM, M-Omi-GFP and control transfected cells)?
Answer: cytotoxic side effect that caused apoptosis

Question: What about the “reduction of Omi-induced apoptosis” value ([2]; M-Omi-GFP transfected cells, up to 10 μM, 36 h) of the same molecule?
Answer: up to 40%

Question: And the “effect on control (vector alone) transfected cells” value ([2]; pEGFP-N1 transfected cells, up to 10 μM)?
Answer: no effect

Question: And the “apoptosis of fibroblasts transfected with cytoplasmic Omi” value ([2]; treated with ucf-101)?
Answer: apoptosis was dramatically reduced

Question: And the IC50 [3]?
Answer: > 500 µM

Question: What about the IC50 [4] of the same molecule?
Answer: 430 µM and 360 µM

Question: What about the IC50 [5] of the same molecule?
Answer: > 500 µM

Question: What about the “inhibition of MBP-Omi-(134-458) activity” value [6] of the same molecule?
Answer: > 50%

Question: And the “protease activity and apoptosis induced by Omi-GVPS-GFP” value [7]?
Answer: inhibited the protease activity and apoptosis

Question: What about the mode of inhibition ([8]; 10 μM ucf-101, various amounts of Dcasein-FITC) of the same molecule?
Answer: competitive inhibitor

Question: What about the “inhibition of MBP-Omi-(134-458) activity” value ([8]; 20 μM compound, 10 μg Dcasein-FITC, 2 μg enzyme) of the same molecule?
Answer: more than 78%

Question: And the “effect of longer preincubation with enzyme on inhibition (reversibility)” value ([8]; preincubated at 37° C for 40 min or 1 h, various concentrations)?
Answer: inhibition was reduced

Question: And the IC50 [9]?
Answer: 200 µM and 250 µM

Question: What about the IC50 [10] of the same molecule?
Answer: 390 µM

Question: And the “cisplatin-induced apoptosis (annexin V positive cells)” value [11]?
Answer: reduces apoptosis in a dose-dependent manner

Question: What about the IC50 [12] of the same molecule?
Answer: 410 µM and > 500 µM

Question: And the “cleavage of two kidney cytoplasmic polypeptides (14-3-3, annexin V) by His-Omi” value [13]?
Answer: cleavage was prevented

Question: And the “ability to enter mammalian cells (cytoplasmic fluorescence)” value [14]?
Answer: cells are permeable to this chemical

Question: What about the IC50 [15] of the same molecule?
Answer: ≥ 500 µM

Question: And the IC50 [16]?
Answer: 9.5 µM

Question: What about the “inhibition of L56-(140-480) activity” value [17] of the same molecule?
Answer: effective inhibitor of the activity of His-L56-(140-480) but to a lesser extent than His-Omi-(134-458)

Question: And the “inhibition of His-Omi-(134-458) activity against β-casein” value ([18]; 80 μM)?
Answer: inhibit completely

Question: And the “inhibition of His-Omi-(134-458) activity against β-casein” value ([18]; 10-100 μM (lanes 4-9))?
Answer: concentration-dependent manner

Question: What about the IC50 [19] of the same molecule?
Answer: > 500 µM
